Converted amounts (≈) assume the structure as drawn.
Tests used:
[1] = tested on: methicillin-resistant Staphylococcus aureus (MRSA); assay: In vitro antibacterial activity, broth microdilution (MIC90); conditions: read-out: Antibacterial activity MIC90, MRSA
Text: (§1) MIC90 measurement was made according to the broth microdilution method based on the CLSI document [Clinical and Laboratory Standards Institute Document.
(§2) The test compounds in DMSO solution were further diluted 20-fold with sterile distilled water.

[2] = tested on: linezolid- and vancomycin-resistant Enterococcus faecalis (LVRE); assay: as above; conditions: read-out: Antibacterial activity MIC90, LVRE
Text: as §1, §2

MIC90 [1]	MIC [2]	SMILES
0.5 µg/mL (≈ 1.27 µM)	4 µg/mL (≈ 10.2 µM)	CC(=O)NC[C@H]1CN(c2ccc(N3C=NN(C(C)=S)CC3)c(F)c2)C(=O)O1 [Compound 34]
0.5 µg/mL (≈ 1.13 µM)	2 µg/mL (≈ 4.53 µM)	COC(=S)NC[C@H]1CN(c2ccc(N3C=NN(C(=S)OC)CC3)c(F)c2)C(=O)O1 [Compound 72]
2 µg/mL (≈ 5.08 µM)	8 µg/mL (≈ 20.3 µM)	CC(=O)NC[C@H]1CN(c2ccc(N3C=NN(C(=O)CO)CC3)c(F)c2)C(=O)O1 [Compound 12]
16 µg/mL (≈ 39.2 µM)	64 µg/mL (≈ 157 µM)	CC(=O)NC[C@H]1CN(c2ccc(N3C=NN(CC(=O)NO)CC3)c(F)c2)C(=O)O1 [Compound 26]
4 µg/mL (≈ 10.2 µM)	8 µg/mL (≈ 20.3 µM)	CC(=O)NC[C@H]1CN(c2ccc(N3C=NN(CC(C)O)CC3)c(F)c2)C(=O)O1 (some centres unmarked) [Compound 38]
8 µg/mL (≈ 18.2 µM)	32 µg/mL (≈ 72.8 µM)	CC(=O)NC[C@H]1CN(c2ccc(N3C=NN(C(=S)OCCO)CC3)c(F)c2)C(=O)O1 [Compound 32]
2 µg/mL (≈ 4.93 µM)	8 µg/mL (≈ 19.7 µM)	CC(=O)NC[C@H]1CN(c2ccc(N3C=NN(C(=O)C(C)=O)CC3)c(F)c2)C(=O)O1 [Compound 36]
0.5 µg/mL (≈ 1.1 µM)	4 µg/mL (≈ 8.82 µM)	COC(=S)NC[C@H]1CN(c2ccc(N3C=NN(CCOC(C)=O)CC3)c(F)c2)C(=O)O1 [Compound 71]
0.5 µg/mL (≈ 1.29 µM)	16 µg/mL (≈ 41.2 µM)	O=CN1CCN(c2ccc(N3C[C@H](CNc4ccon4)OC3=O)cc2F)C=N1 [Compound 85]
2 µg/mL (≈ 5.08 µM)	32 µg/mL (≈ 81.3 µM)	CCOC(=O)NC[C@H]1CN(c2ccc(N3C=NN(C=O)CC3)c(F)c2)C(=O)O1 [Compound 43]
16 µg/mL (≈ 38.6 µM)	64 µg/mL (≈ 154 µM)	CC(=O)NC[C@H]1CN(c2ccc(N3C=NN(S(N)(=O)=O)CC3)c(F)c2)C(=O)O1 [Compound 20]
4 µg/mL (≈ 9.79 µM)	8 µg/mL (≈ 19.6 µM)	CCNC(=S)NC[C@H]1CN(c2ccc(N3C=NN(C=O)CC3)c(F)c2)C(=O)O1 [Compound 56]
0.5 µg/mL (≈ 1.22 µM)	4 µg/mL (≈ 9.77 µM)	CCOC(=S)NC[C@H]1CN(c2ccc(N3C=NN(C=O)CC3)c(F)c2)C(=O)O1 [Compound 54]
4 µg/mL (≈ 9.58 µM)	16 µg/mL (≈ 38.3 µM)	CC(=O)NC[C@H]1CN(c2ccc(N3C=NN(CC(F)(F)F)CC3)c(F)c2)C(=O)O1 [Compound 8]
4 µg/mL (≈ 10.2 µM)	32 µg/mL (≈ 81.6 µM)	CC(=O)NC[C@H]1CN(c2ccc(N3C=NN(CC(N)=O)CC3)c(F)c2)C(=O)O1 [Compound 25]
2 µg/mL (≈ 4.77 µM)	8 µg/mL (≈ 19.1 µM)	CC#CCN1CCN(c2ccc(N3C[C@H](CNC(=S)OC)OC3=O)cc2F)C=N1 [Compound 64]
1 µg/mL (≈ 2.31 µM)	4 µg/mL (≈ 9.25 µM)	O=CN1CCN(c2ccc(N3C[C@H](CNC(=O)C(Cl)Cl)OC3=O)cc2F)C=N1 [Compound 51]
1 µg/mL (≈ 2.75 µM)	8 µg/mL (≈ 22 µM)	CC(=O)NC[C@H]1CN(c2ccc(N3C=NN(C=O)CC3)c(F)c2)C(=O)O1 [Compound 1]
1 µg/mL (≈ 2.49 µM)	8 µg/mL (≈ 19.9 µM)	CC(=O)NC[C@H]1CN(c2ccc(N3C=NN(C(=O)CC#N)CC3)c(F)c2)C(=O)O1 [Compound 11]
2 µg/mL (≈ 4.72 µM)	8 µg/mL (≈ 18.9 µM)	CC(C)OC(=S)NC[C@H]1CN(c2ccc(N3C=NN(C=O)CC3)c(F)c2)C(=O)O1 [Compound 55]
4 µg/mL (≈ 9.68 µM)	16 µg/mL (≈ 38.7 µM)	CC(=O)NC[C@H]1CN(c2ccc(N3C=NN(S(C)(=O)=O)CC3)c(F)c2)C(=O)O1 [Compound 18]
1 µg/mL (≈ 2.44 µM)	4 µg/mL (≈ 9.77 µM)	COC(=S)N1CCN(c2ccc(N3C[C@H](CNC(C)=O)OC3=O)cc2F)C=N1 [Compound 30]
0.5 µg/mL (≈ 1.27 µM)	4 µg/mL (≈ 10.1 µM)	CC(=O)NC[C@H]1CN(c2ccc(N3C=NN(C(N)=S)CC3)c(F)c2)C(=O)O1 [Compound 29]
0.5 µg/mL (≈ 1.2 µM)	4 µg/mL (≈ 9.63 µM)	O=CN1CCN(c2ccc(N3C[C@H](CNC(=S)C(F)F)OC3=O)cc2F)C=N1 [Compound 77]
0.5 µg/mL (≈ 1.07 µM)	2 µg/mL (≈ 4.28 µM)	COC(=S)NC[C@H]1CN(c2ccc(N3C=NN(C(=O)COC(C)=O)CC3)c(F)c2)C(=O)O1 [Compound 59]

Second part, the molecule before the results:

SMILES	MIC90 [1]	MIC [2]
N#CCN1CCN(c2ccc(N3C[C@H](CNC(=O)C(F)F)OC3=O)cc2F)C=N1 [Compound 50]	2 µg/mL (≈ 4.87 µM)	16 µg/mL (≈ 39 µM)
O=C1O[C@@H](CO)CN1c1ccc(N2C=NNCC2)c(F)c1 [Compound 93]	1 µg/mL (≈ 3.4 µM)	32 µg/mL (≈ 109 µM)
O=C1O[C@@H](CNc2ccon2)CN1c1ccc(N2C=NNCC2)c(F)c1 [Compound 86]	0.5 µg/mL (≈ 1.39 µM)	8 µg/mL (≈ 22.2 µM)
CCN1CCN(c2ccc(N3C[C@H](CNC(=O)C(F)F)OC3=O)cc2F)C=N1 [Compound 48]	4 µg/mL (≈ 10 µM)	16 µg/mL (≈ 40.1 µM)
COC(=S)NC[C@H]1CN(c2ccc(N3C=NN(C=O)CC3)cc2)C(=O)O1 [Compound 97]	0.5 µg/mL (≈ 1.32 µM)	8 µg/mL (≈ 21.2 µM)
C#CCN1CCN(c2ccc(N3C[C@H](CNc4ccon4)OC3=O)cc2F)C=N1 [Compound 91]	0.5 µg/mL (≈ 1.26 µM)	8 µg/mL (≈ 20.1 µM)
CC(=O)NC[C@H]1CN(c2ccc(N3C=NN(C)CC3)cc2)C(=O)O1 [Compound 96]	2 µg/mL (≈ 6.04 µM)	16 µg/mL (≈ 48.3 µM)
O=C(NC[C@H]1CN(c2ccc(N3C=NNCC3)c(F)c2)C(=O)O1)C(F)F [Compound 46]	2 µg/mL (≈ 5.39 µM)	16 µg/mL (≈ 43.1 µM)
CC(=O)NC[C@H]1CN(c2ccc(N3C=NOCC3)c(F)c2)C(=O)O1 [Compound 28]	2 µg/mL (≈ 5.95 µM)	16 µg/mL (≈ 47.6 µM)
C=CCN1CCN(c2ccc(N3C[C@H](CNC(=S)OC)OC3=O)cc2F)C=N1 [Compound 62]	0.0625 µg/mL (≈ 0.153 µM)	2 µg/mL (≈ 4.91 µM)
O=CN1CCN(c2ccc(N3C[C@H](Cn4ccnn4)OC3=O)cc2)C=N1 [Compound 99]	2 µg/mL (≈ 5.63 µM)	32 µg/mL (≈ 90.1 µM)
CC(=O)NC[C@H]1CN(c2ccc(N3C=NN(C=O)CC3)cc2)C(=O)O1 [Compound 95]	1 µg/mL (≈ 2.9 µM)	16 µg/mL (≈ 46.3 µM)
C#CCN1CCN(c2ccc(N3C[C@H](CNC(=O)C(F)F)OC3=O)cc2F)C=N1 [Compound 49]	1 µg/mL (≈ 2.44 µM)	8 µg/mL (≈ 19.5 µM)
CC(=O)NC[C@H]1CN(c2ccc(N3C=NN(C4CCC4)CC3)c(F)c2)C(=O)O1 [Compound 41]	2 µg/mL (≈ 5.14 µM)	4 µg/mL (≈ 10.3 µM)
CC(=O)NC[C@H]1CN(c2ccc(N3C=NN(C)CC3)c(F)c2)C(=O)O1 [Compound 3]	2 µg/mL (≈ 5.72 µM)	8 µg/mL (≈ 22.9 µM)
O=C1O[C@@H](Cn2ccnn2)CN1c1ccc(N2C=NNCC2)c(F)c1 [Compound 82]	2 µg/mL (≈ 5.79 µM)	32 µg/mL (≈ 92.7 µM)
CC(=O)NC[C@H]1CN(c2ccc(N3C=NN(C(=O)NCCO)CC3)c(F)c2)C(=O)O1 [Compound 15]	4 µg/mL (≈ 9.47 µM)	8 µg/mL (≈ 18.9 µM)
C=CCN1CCN(c2ccc(N3C[C@H](CNC(C)=O)OC3=O)cc2F)C=N1 [Compound 4]	1 µg/mL (≈ 2.66 µM)	8 µg/mL (≈ 21.3 µM)
CN1CCN(c2ccc(N3C[C@H](CNc4ccon4)OC3=O)cc2)C=N1 [Compound 101]	1 µg/mL (≈ 2.81 µM)	32 µg/mL (≈ 89.8 µM)
C#CCN1CCN(c2ccc(N3C[C@H](CNC(=S)C(F)F)OC3=O)cc2F)C=N1 [Compound 78]	0.5 µg/mL (≈ 1.18 µM)	4 µg/mL (≈ 9.4 µM)
O=CN1CCN(c2ccc(N3C[C@H](CNC(=O)C(F)F)OC3=O)cc2F)C=N1 [Compound 45]	1 µg/mL (≈ 2.5 µM)	4 µg/mL (≈ 10 µM)
CC(=O)NC[C@H]1CN(c2ccc(N3C=NN(CC#N)CC3)c(F)c2)C(=O)O1 [Compound 7]	1 µg/mL (≈ 2.67 µM)	8 µg/mL (≈ 21.4 µM)
CCN1CCN(c2ccc(N3C[C@H](CNc4ccon4)OC3=O)cc2F)C=N1 [Compound 90]	2 µg/mL (≈ 5.15 µM)	8 µg/mL (≈ 20.6 µM)
CC(=O)NC[C@H]1CN(c2ccc(N3C=NN(C(=O)C(F)F)CC3)c(F)c2)C(=O)O1 [Compound 17]	1 µg/mL (≈ 2.42 µM)	8 µg/mL (≈ 19.4 µM)

Reference: US8242113B2, “Oxazolidinone derivatives with cyclic amidoxime or cyclic amidrazone pharmaceutical compositions thereof” (Legochem Biosciences, Inc., priority 2008, dated 2012)
